Results on 36 compounds are retold here after US9834521B2, “Choline kinase inhibitors” (ARIAD Pharmaceuticals, Inc., priority 2013, dated 2017).

The first assay deals with T1, truncated form of human Choline kinase α1 that includes residues 75-457 (Homo sapiens, UniProt P35790).
T1 construct: made in house
T1 sequence (P35790 75-457): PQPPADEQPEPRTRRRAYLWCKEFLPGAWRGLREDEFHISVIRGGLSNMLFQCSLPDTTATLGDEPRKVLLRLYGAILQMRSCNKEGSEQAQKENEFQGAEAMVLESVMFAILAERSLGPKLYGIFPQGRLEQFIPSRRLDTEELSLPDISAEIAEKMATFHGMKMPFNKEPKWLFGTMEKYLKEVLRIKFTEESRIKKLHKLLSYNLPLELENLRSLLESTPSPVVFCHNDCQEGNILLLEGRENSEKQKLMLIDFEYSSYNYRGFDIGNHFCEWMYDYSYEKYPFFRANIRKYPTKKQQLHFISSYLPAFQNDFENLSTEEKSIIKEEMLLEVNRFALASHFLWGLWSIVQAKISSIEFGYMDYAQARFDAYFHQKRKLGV
Briefly: Kinase Assay, coupled (ATP regeneration) LDH/PK assay, NADH absorbance.
Settings: not given
The class given is biochemical. The protocol: Absorbance of NADH (340 nm) was measured over 30 min using a SpectraMax M5 (Molecular Devices). Initial reaction velocity (ΔA340/Δt) was calculated and plotted as a function of inhibitor concentration in a 2-fold dilution series. IC50 values were obtained by fitting the relative velocities to a dose-response model.
Broadly, the IC50 is the point on the concentration scale where inhibition reaches its midpoint. On to `CN1CCCN(Cc2ccc(-c3ccc(C(=O)N4CCCCC4)cc3)c(C#N)c2)CC1` [Example 34, 4-((4-methyl-1,4-diazepan-1-yl)methyl)-4′-(piperidine-1-carbonyl)-[1,1′-biphenyl]-2-carbonitrile], for which the IC50 is below 500 nM.
On the same count and under the same terms, the value for `CN1CCCN(Cc2ccc(-c3ccc(C(=O)N4CCOCC4)cc3)c(C#N)c2)CC1` [Example 36, 4-((4-methyl-1,4-diazepan-1-yl)methyl)-4′-(morpholine-4-carbonyl)-[1,1′-biphenyl]-2-carbonitrile] was below 2000 nM.

The same assay, now with this note: Examples designated with an asterisk (*): version 1 of the Kinase Assay, 200 nM enzyme; read-out: IC50.
On to `CN1CCCN(Cc2ccc(CN3CC[C@@H](O)C3)cc2)CC1` [Example 150, (R)-1-(4-((4-methyl-1,4-diazepan-1-yl)methyl)benzyl)pyrrolidin-3-ol], for which the 50% inhibitory concentration (IC50) was below 50000 nM.
`C=CCN1CCN(Cc2ccc(CN3CCCN(C)CC3)cc2)CC1` [Example 146, 1-(4-((4-allylpiperazin-1-yl)methyl)benzyl)-4-methyl-1,4-diazepane]: the 50% inhibitory concentration (IC50) is below 50000 nM.
Regarding `CN1CCCN(Cc2ccc(N3CCS(=O)(=O)CC3)cc2)CC1` [Example 145, 4-(4-((4-methyl-1,4-diazepan-1-yl)methyl)phenyl)thiomorpholine 1,1-dioxide], the concentration for half-maximal inhibition (IC50) is below 50000 nM.
For `CN1CCCN(Cc2ccc(-c3ccc(F)cc3)cc2)CC1` [Example 135, 1-((4′-fluoro-[1,1′-biphenyl]-4-yl)methyl)-4-methyl-1,4-diazepane], the concentration for half-maximal inhibition (IC50) is below 50000 nM.
Regarding `CN1CCCN(Cc2ccc(N3CCCC3=O)cc2)CC1` [Example 144, 1-(4-((4-methyl-1,4-diazepan-1-yl)methyl)phenyl)pyrrolidin-2-one], the IC50 is below 50000 nM.

Still in this assay, the particulars now being: Examples not designated with an asterisk; footnote prints version 1 of the Kinase Assay; read-out: IC50.
`CN1CCCN(Cc2ccc(-c3ccc(CCC(=O)O)cc3)cc2)CC1` [Example 132, 3-(4′-((4-methyl-1,4-diazepan-1-yl)methyl)-[1,1′-biphenyl]-4-yl)propanoic acid]: the IC50 is below 50000 nM.
As to `CN1CCCN(Cc2ccc(-c3ccc(N)c([N+](=O)[O-])c3)c(C#N)c2)CC1` [Example 101, 4′-amino-4-((4-methyl-1,4-diazepan-1-yl)methyl)-3′-nitro-[1,1′-biphenyl]-2-carbonitrile], the IC50 is below 500 nM.
On to `CC(=O)Nc1cc(-c2ccc(CN3CCCN(C)CC3)cc2C#N)ccc1[N+](=O)[O-]` [Example 110, N-(2′-cyano-4′-((4-methyl-1,4-diazepan-1-yl)methyl)-4-nitro-[1,1′-biphenyl]-3-yl)acetamide], for which the IC50 is below 500 nM.
Regarding `Cc1cc(-c2ccc(CN3CCCN(C)CC3)cc2C#N)cnc1N` [Example 118, 2-(6-amino-5-methylpyridin-3-yl)-5-((4-methyl-1,4-diazepan-1-yl)methyl)benzonitrile], the IC50 is below 2000 nM.
Take `CN1CCCN(Cc2ccc(-c3ccc(C(N)=O)cc3)c(C#N)c2)CC1` [Example 28, 2′-cyano-4′-((4-methyl-1,4-diazepan-1-yl)methyl)-[1,1′-biphenyl]-4-carboxamide]: the IC50 was below 500 nM.
Turning to `CN1CCCN(Cc2ccc(-c3ccc(CN4CCCN(C)CC4)c(C#N)c3)cc2)CC1` [Example 155, 4,4′-bis((4-methyl-1,4-diazepan-1-yl)methyl)-[1,1′-biphenyl]-3-carbonitrile], the 50% inhibitory concentration (IC50) is below 500 nM.
For the compound `COCCN1CCN(C(=O)c2ccc(-c3ccc(CN4CCCN(C)CC4)cc3C#N)cc2)CC1` [Example 21, 4′-(4-(2-methoxyethyl)piperazine-1-carbonyl)-4-((4-methyl-1,4-diazepan-1-yl)methyl)-[1,1′-biphenyl]-2-carbonitrile], the half-inhibitory concentration (IC50) was below 500 nM.
On to `Cc1cc(CN2CCCN(C)CC2)ccc1-c1ccc(CN2CCCN(C)CC2)cc1` [Example 49, 4,4′-((2-methyl-[1,1′-biphenyl]-4,4′-diyl)bis(methylene))bis(1-methyl-1,4-diazepane)], for which the IC50 is below 500 nM.
As for `CC(=O)N1CCN(C(=O)c2ccc(-c3ccc(CN4CCCN(C)CC4)cc3)cc2)CC1` [Example 38, 1-(4-(4′-((4-methyl-1,4-diazepan-1-yl)methyl)-[1,1′-biphenyl]-4-carbonyl)piperazin-1-yl)ethanone], the half-maximal inhibitory concentration (IC50) was below 50000 nM.
As to `Cc1cc(C(=O)N2CCCN(C)CC2)ccc1-c1ccc(CN2CCCN(C)CC2)cc1C#N` [Example 60, 2′-methyl-4-((4-methyl-1,4-diazepan-1-yl)methyl)-4′-(4-methyl-1,4-diazepane-1-carbonyl)-[1,1′-biphenyl]-2-carbonitrile], the IC50 was below 2000 nM.
`CN1CCCN(Cc2ccc(-c3cnc(N)nc3)c(C#N)c2)CC1` [Example 119, 2-(2-aminopyrimidin-5-yl)-5-((4-methyl-1,4-diazepan-1-yl)methyl)benzonitrile]: the IC50 was below 2000 nM.
Still for that read-out and setting: the value for `CN(C)Cc1ccc(-c2ccc(CN3CCCN(C)CC3)cc2C#N)cc1` [Example 12, 4′-((dimethylamino)methyl)-4-((4-methyl-1,4-diazepan-1-yl)methyl)-[1,1′-biphenyl]-2-carbonitrile] was below 500 nM; that for `CN1CCCN(Cc2ccc(-c3ccc(C(=O)O)cc3Br)c(C#N)c2)CC1` [Example 157, 2-bromo-2′-cyano-4′-((4-methyl-1,4-diazepan-1-yl)methyl)-[1,1′-biphenyl]-4-carboxylic acid] was below 50000 nM; that for `CON(C)C(=O)c1ccc(-c2ccc(CN3CCCN(C)CC3)cc2C#N)cc1` [Example 35, 2′-cyano-N-methoxy-N-methyl-4′-((4-methyl-1,4-diazepan-1-yl)methyl)-[1,1′-biphenyl]-4-carboxamide] was below 500 nM.
For `CN1CCCN(Cc2ccc(-c3ccc(CO)cc3)c(C#N)c2)CC1` [Example 108, 4′-(hydroxymethyl)-4-((4-methyl-1,4-diazepan-1-yl)methyl)-[1,1′-biphenyl]-2-carbonitrile], the half-inhibitory concentration (IC50) is below 500 nM.
On the same count and under the same terms, to `CN1CCCN(Cc2ccc(-c3ccc(C(=O)N4CCC(N5CCOCC5)CC4)cc3)cc2)CC1` [Example 39, (4′-((4-methyl-1,4-diazepan-1-yl)methyl)-[1,1′-biphenyl]-4-yl)(4-morpholinopiperidin-1-yl)methanone] belongs below 50000 nM.
Turning to `CN1CCCN(Cc2ccc(-c3cc[nH]c3)c(C#N)c2)CC1` [Example 117, 5-((4-methyl-1,4-diazepan-1-yl)methyl)-2-(1H-pyrrol-3-yl)benzonitrile], the IC50 was below 2000 nM.
`CC(=O)N1CC=C(c2ccc(CN3CCCN(C)CC3)cc2C#N)CC1` [Example 103, 2-(1-acetyl-1,2,3,6-tetrahydropyridin-4-yl)-5-((4-methyl-1,4-diazepan-1-yl)methyl)benzonitrile]: the IC50 was below 500 nM.
Same read-out and setting: to `Cc1ccc(-c2cc(C(=O)N3CCCN(C)CC3)ccc2-c2ccc(CN3CCCN(C)CC3)cc2C#N)cc1` [Example 70, 4″-methyl-4-((4-methyl-1,4-diazepan-1-yl)methyl)-4′-(4-methyl-1,4-diazepane-1-carbonyl)-[1,1′1:2′,1″-terphenyl]-2-carbonitrile] belongs below 500 nM; to `CN1CCCN(Cc2ccc(-c3ccccc3C(N)=O)cc2)CC1` [Example 133, 4′-((4-methyl-1,4-diazepan-1-yl)methyl)-[1,1′-biphenyl]-2-carboxamide], below 50000 nM; to `CN1CCCN(Cc2ccc(-c3ccc(C(=O)N4CCCN(C)CC4)cc3-c3ccc([N+](=O)[O-])cc3)c(C#N)c2)CC1` [Example 73, 4-((4-methyl-1,4-diazepan-1-yl)methyl)-4′-(4-methyl-1,4-diazepane-1-carbonyl)-4″-nitro-[1,1′:2′,1″-terphenyl]-2-carbonitrile], below 500 nM.
On to `CNC(=O)NCc1ccc(-c2ccc(CN3CCCN(C)CC3)cc2C#N)cc1` [Example 47, 1-((2′-cyano-4′-((4-methyl-1,4-diazepan-1-yl)methyl)-[1,1′-biphenyl]-4-yl)methyl)-3-methylurea], for which the IC50 is below 500 nM.
Regarding `CN1CCCN(Cc2ccc(-c3ccc(C(=O)N4CCCN(C)CC4)cc3F)cc2)CC1` [Example 59, (2-fluoro-4′-((4-methyl-1,4-diazepan-1-yl)methyl)-[1,1′-biphenyl]-4-yl)(4-methyl-1,4-diazepan-1-yl)methanone], the IC50 is below 2000 nM.
For `CN1CCCN(Cc2ccc(-c3ccc(N)cc3)c(C#N)c2)CC1` [Example 113, 4′-amino-4-((4-methyl-1,4-diazepan-1-yl)methyl)-[1,1′-biphenyl]-2-carbonitrile], the half-maximal inhibitory concentration (IC50) was below 2000 nM.
Same read-out and setting: the value for `CN1CCCN(Cc2ccc(-c3ccc(C(=O)N4CCCN(C)CC4)cc3-c3ccc(S(C)(=O)=O)cc3)c(C#N)c2)CC1` [Example 75, 4-((4-methyl-1,4-diazepan-1-yl)methyl)-4′-(4-methyl-1,4-diazepane-1-carbonyl)-4″-(methylsulfonyl)-[1,1′1:2′,1″-terphenyl]-2-carbonitrile] was below 500 nM; that for `CN1CCCN(Cc2ccc(-c3ccc(CC(=O)O)cc3)c(C#N)c2)CC1` [Example 127, 2-(2′-cyano-4′-((4-methyl-1,4-diazepan-1-yl)methyl)-[1,1′-biphenyl]-4-yl)acetic acid] was below 50000 nM.
As to `CN1CCCN(Cc2ccc(-c3ccc(C(N)=O)cc3F)c(C#N)c2)CC1` [Example 96, 2′-cyano-2-fluoro-4′-((4-methyl-1,4-diazepan-1-yl)methyl)-[1,1′-biphenyl]-4-carboxamide], the half-inhibitory concentration (IC50) was below 500 nM.
On to `CN1CCCN(Cc2ccc(-c3ccc(C(=O)N4CCCN(C)CC4)cc3-c3ccc(CC#N)cc3)c(C#N)c2)CC1` [Example 67, 4″-(cyanomethyl)-4-((4-methyl-1,4-diazepan-1-yl)methyl)-4′-(4-methyl-1,4-diazepane-1-carbonyl)-[1,1′:2′,1″-terphenyl]-2-carbonitrile], for which the IC50 is below 500 nM.
Regarding `CN1CCCN(Cc2ccc(-c3ccc(N)nc3)c(C#N)c2)CC1` [Example 111, 2-(6-aminopyridin-3-yl)-5-((4-methyl-1,4-diazepan-1-yl)methyl)benzonitrile], the IC50 is below 500 nM.
